We go through twelve compounds from PubChem BioAssay (NCI).

Test systems include K-562 leukemia; SNB-75 CNS; 786-0 renal; SK-OV-3 ovarian; TK-10 renal; NCI-H226 lung; HCT-116 colon; MDA-MB-231 breast; MDA-MB-435; MCF7 breast.
Experiment in all cases: NCI tumour cell line growth inhibition, 48 h

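A five-concentration, 48-hour dose response in 96-well plates underlies each endpoint, interpolated linearly between surrounding concentrations. At the GI50, growth is halved. The concentration for full growth arrest is given as TGI.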

In the case of `COc1ccc(C(Cl)=C(c2ccc(OCCN(C)C)cc2)c2ccc(OCCN(C)C)cc2)cc1`, the TGI in the assay with K-562 leukemia is 3.69 µM; with SNB-75 CNS, 3.29 µM; with 786-0 renal it was 2.53 µM; in the assay with SK-OV-3 ovarian, 7.69 µM; with TK-10 renal, 31.1 µM; in the assay on NCI-H226 lung it was 3.42 µM. For the same compound, the TGI in the assay on HCT-116 colon worked out at 2.68 µM.

Turning to `Cn1c2ccccc2n2c(=O)c3c(c(C#N)c12)CCCC3`, the TGI in the assay with K-562 leukemia, in the assay with SNB-75 CNS, in the assay on 786-0 renal, in the assay with SK-OV-3 ovarian, in the assay on TK-10 renal and with NCI-H226 lung was over 100 µM each time. Further, in the assay on HCT-116 colon, the TGI was over 100 µM.

Consider `COCCOCOc1ccc(OCOCCOC)c2c1C(=O)c1ccccc1C2=O`, for which the TGI in the assay with K-562 leukemia, with SNB-75 CNS, with 786-0 renal, in the assay on SK-OV-3 ovarian, with TK-10 renal and in the assay on NCI-H226 lung was over 100 µM in each case. Moreover, the TGI in the assay with HCT-116 colon was over 85.4 µM.

On to `CN(C)c1ccc(N=Nc2ccncc2)cc1`, for which the TGI with MDA-MB-231 breast, in the assay on K-562 leukemia, with 786-0 renal, in the assay with MDA-MB-435, in the assay on SK-OV-3 ovarian and in the assay with TK-10 renal was over 100 µM each time. The TGI in the assay with NCI-H226 lung, in the assay on HCT-116 colon and with MCF7 breast was over 100 µM each time.

As for `Cc1ccc(S(=O)OC2C3CC4CC(C3)CC2C4)cc1` (stereo unspecified), the TGI in the assay with K-562 leukemia, in the assay with SNB-75 CNS, in the assay with 786-0 renal, in the assay with SK-OV-3 ovarian, with TK-10 renal and in the assay on NCI-H226 lung was over 100 µM each time. The TGI with HCT-116 colon is over 100 µM.

`COc1ccc2c(c1OC)C(=O)OC2C1c2c(c([N+](=O)[O-])c3c(c2OC)OCO3)CCN1C` (stereo unspecified): the GI50 in the assay on MDA-MB-231 breast, in the assay with SNB-75 CNS, in the assay on 786-0 renal, in the assay with MDA-MB-435, with SK-OV-3 ovarian and in the assay with TK-10 renal was over 100 µM each time. Besides, the GI50 in the assay on NCI-H226 lung, in the assay on HCT-116 colon and with MCF7 breast was over 100 µM in each case. In addition, the TGI in the assay with MDA-MB-231 breast, in the assay with SNB-75 CNS, with 786-0 renal, in the assay with MDA-MB-435, in the assay with SK-OV-3 ovarian and in the assay on TK-10 renal was over 100 µM throughout. For the same compound, the TGI in the assay with NCI-H226 lung, in the assay with HCT-116 colon and with MCF7 breast was over 100 µM throughout.

As to `CCC1(O)C(=O)OCc2c1cc1n(c2=O)Cc2cc3cc(N)ccc3nc2-1` (stereo unspecified), the TGI in the assay with MDA-MB-231 breast was over 64.8 µM; with K-562 leukemia, 31.3 µM; with SNB-75 CNS, 0.0375 µM; with 786-0 renal it was 0.0469 µM; with SK-OV-3 ovarian it was 0.207 µM; with TK-10 renal, over 28.2 µM. For the same compound, the TGI in the assay on MCF7 breast was over 54.3 µM.

Consider `CN1COc2c(n(C)c(=O)[nH]c2=O)C1`, for which the TGI with K-562 leukemia, with SNB-75 CNS, in the assay on 786-0 renal, with SK-OV-3 ovarian, in the assay with TK-10 renal and with NCI-H226 lung was over 100 µM in each case. Moreover, the TGI with HCT-116 colon was over 100 µM.

`COc1ccc(/C=N/NC(=O)Cn2c(-c3ccc(S(C)(=O)=O)cc3)nc3cc(Cl)ccc32)cc1`: the GI50 with MDA-MB-231 breast was 2.48 µM; in the assay on K-562 leukemia, 0.343 µM; with SNB-75 CNS, 1.05 µM; with 786-0 renal it was 1.66 µM; in the assay on SK-OV-3 ovarian, 1.72 µM; with TK-10 renal, 4.7 µM. For the same compound, the GI50 was 1.63 µM in the assay with NCI-H226 lung, 0.445 µM in the assay with HCT-116 colon and 1.92 µM with MCF7 breast. For the same compound, the TGI in the assay with MDA-MB-231 breast, in the assay with K-562 leukemia, with SNB-75 CNS, in the assay with 786-0 renal, in the assay on SK-OV-3 ovarian and with TK-10 renal was over 50 µM in each case. In addition, the TGI with NCI-H226 lung, in the assay with HCT-116 colon and in the assay on MCF7 breast was over 50 µM each time.

As for `O=c1[nH]cnc2c(C3NC(CO)C(O)C3O)c[nH]c12` (stereo unspecified), the GI50 in the assay on MDA-MB-231 breast, in the assay on SNB-75 CNS, with 786-0 renal, in the assay with MDA-MB-435, with SK-OV-3 ovarian and in the assay on TK-10 renal was over 100 µM each time. The GI50 in the assay with NCI-H226 lung, with HCT-116 colon and in the assay with MCF7 breast was over 100 µM each time. For the same compound, the TGI in the assay with MDA-MB-231 breast, in the assay on SNB-75 CNS, with 786-0 renal, with MDA-MB-435, with SK-OV-3 ovarian and in the assay on TK-10 renal was over 100 µM throughout. For the same compound, the TGI with NCI-H226 lung, in the assay with HCT-116 colon and in the assay on MCF7 breast was over 100 µM throughout.

In the case of `COc1ccc(C=O)c(NC(=O)C(C)C)c1`, the TGI in the assay with K-562 leukemia is over 100 µM; in the assay on SNB-75 CNS, over 100 µM; in the assay with 786-0 renal, over 100 µM; with SK-OV-3 ovarian, over 100 µM; in the assay with TK-10 renal, over 100 µM; with NCI-H226 lung it was over 10 µM. The same compound yielded a TGI in the assay on HCT-116 colon of 31.2 µM.

In the case of `C[CH2][Pb]([CH2]C)([CH2]C)[O]C(=O)c1ccc2ccccc2n1`, the GI50 in the assay with MDA-MB-231 breast, with K-562 leukemia, in the assay with 786-0 renal, in the assay with MDA-MB-435, with SK-OV-3 ovarian and with NCI-H226 lung was over 10 µM each time. The GI50 in the assay on HCT-116 colon is over 10 µM. The TGI in the assay with MDA-MB-231 breast, with K-562 leukemia, with 786-0 renal, in the assay on MDA-MB-435, in the assay with SK-OV-3 ovarian and in the assay on NCI-H226 lung was over 10 µM each time. Besides, the TGI in the assay on HCT-116 colon is over 10 µM.
